Experimental data as given in ChEMBL document CHEMBL5260833, “An overview of quinazolines: Pharmacological significance and recent developments” (Eur J Med Chem, 2018).
Converted amounts (≈) assume the structure as drawn. Values belong to the molecule of their own block, whether it stands above or below them.

How the values were obtained:
[1] = Antiviral activity against Gomphrena mosaic virus relative to control; format: functional, Gomphrena mosiac virus; design: concentration or dose not given beside the values
[2] = organism: Mus musculus; test: Sedative hypnotic activity in mouse; format: functional; design: concentration or dose not given beside the values
[3] = system: Staphylococcus aureus; test: Antibacterial activity against Staphylococcus aureus assessed as zone of inhibition at 100 ppm; format: functional; conditions: read-out: IZ
[4] = system: Escherichia coli; test: Antibacterial activity against Escherichia coli assessed as zone of inhibition at 100 ppm; format: functional; conditions: read-out: IZ
[5] = organism: Homo sapiens; test: Immunosuppressive activity in human T cell; format: functional, organism-based
[6] = organism: Homo sapiens; test: Immunosuppressive activity in human B cell; format: functional, organism-based
[7] = system: Mus musculus; test: Analgesic activity in […] albino mouse at 20 mg/kg, po measured after 2 hrs by Tail-Flick technique relative to control; format: functional
[8] = system: Rattus norvegicus; test: Antiinflammatory activity in rat at assessed as reduction in paw edema at 200 mg/kg relative to control; format: functional
[9] = CNS toxicity in po dosed mouse assessed as depression in CNS; format: organism-based; conditions: in vivo
[10] = system: Proteus vulgaris; test: Antimicrobial activity against Proteus vulgaris assessed as bacterial growth inhibition; format: functional
[11] = system: Citrobacter freundii; test: Antimicrobial activity against Citrobacter freundii assessed as bacterial growth inhibition; format: functional
[12] = system: Pseudomonas aeruginosa; test: Antimicrobial activity against Pseudomonas aeruginosa assessed as bacterial growth inhibition; format: functional
[13] = system: Proteus mirabilis; test: Antimicrobial activity against Proteus mirabilis assessed as bacterial growth inhibition; format: functional
[14] = system: Escherichia coli; test: Antimicrobial activity against Escherichia coli assessed as bacterial growth inhibition; format: functional
[15] = system: Staphylococcus saprophyticus; test: Antimicrobial activity against Staphylococcus saprophyticus assessed as bacterial growth inhibition; format: functional
[16] = system: Staphylococcus aureus; test: Antimicrobial activity against Staphylococcus aureus assessed as bacterial growth inhibition; format: functional
[17] = system: Bacillus subtilis; test: Antimicrobial activity against Bacillus subtilis assessed as bacterial growth inhibition; format: functional
[18] = system: Staphylococcus epidermidis; test: Antimicrobial activity against Staphylococcus epidermidis assessed as bacterial growth inhibition; format: functional
[19] = system: Candida albicans; test: Antimicrobial activity against Candida albicans assessed as bacterial growth inhibition; format: functional
[20] = system: Mycolicibacterium phlei; test: Antimicrobial activity against Mycobacterium phlei assessed as bacterial growth inhibition; format: functional
[21] = system: Klebsiella oxytoca; test: Antimicrobial activity against Klebsiella oxytoca assessed as bacterial growth inhibition; format: functional
[22] = system: Micrococcus luteus; test: Antimicrobial activity against Micrococcus luteus assessed as bacterial growth inhibition; format: functional

SMILES: COc1cc(N/N=C(C)/N=N/n2cnc3ccccc3c2=O)ccc1O
Activity [1]: 15%

SMILES: Cc1cccc(-n2c(=O)c3ccccc3n3cnnc23)c1
Activity [2]: 4%

SMILES: Cc1nc2ccc(Br)cc2c(=O)n1/N=C/c1cc(Cl)cc(Cl)c1O
zone of inhibition at 100 µg/mL [3]: 16 mm | zone of inhibition at 100 µg/mL [4]: 14 mm

IC50 [5]: 1410 nM | IC50 [6]: 2930 nM
SMILES: Nc1nc(N)c2c(CCCc3ccc(C(=O)N[C@@H](C[C@@H](F)C(=O)O)C(=O)O)cc3)c[nH]c2n1

SMILES: CCC(CC)=NNC1=Nc2ccccc2C(=O)C1c1ccccc1 (centres undefined)
Activity [7]: 72%

SMILES: CC(/N=N/n1cnc2ccccc2c1=O)=N\Nc1ccccc1Cl
Activity [1]: 15%

SMILES: O=C(O)c1ccc(Cl)cc1-n1c(/C=C/c2ccc(F)cc2)nc2ccccc2c1=O
inhibition in vivo at 200 mg/kg [8]: 62.2%

IC50 [5]: 2300 nM | IC50 [6]: 2930 nM
SMILES: Nc1nc2c(c(=O)[nH]1)C[C@@H](CCc1ccc(C(=O)N[C@@H](C[C@@H](F)C(=O)O)C(=O)O)cc1)CN2

SMILES: O=C(O)c1ccc(Cl)c(-n2c(/C=C/c3ccc(F)cc3)nc3ccccc3c2=O)c1
inhibition in vivo at 200 mg/kg [8]: 62.2%

SMILES: CCC(CC)=NNC1=Nc2ccccc2C(=O)C1c1ccc(OC)cc1 (centres undefined)
Activity [7]: 64%

SMILES: COc1cc(/C=N/n2c(C)nc3ccc(Br)cc3c2=O)cc(I)c1O
zone of inhibition at 100 µg/mL [3]: 16 mm | zone of inhibition at 100 µg/mL [4]: 14 mm

SMILES: CC(/N=N/n1cnc2ccccc2c1=O)=N\Nc1ccc(Cl)cc1
Activity [1]: 15%

SMILES: CC(=O)Nc1ccc2nc(CF)n(-c3ccccc3C)c(=O)c2c1
LD50 [9]: > 1000 mg/kg

IC50 [5]: 5.67 nM | IC50 [6]: 8.08 nM
SMILES: Cc1nc2ccc(CN(C)c3ccc(C(=O)N[C@@H](C[C@@H](F)C(=O)O)C(=O)O)s3)cc2c(=O)[nH]1

SMILES: O=c1c2ccc(Cl)cc2nc(/C=C/c2ccc(Cl)cc2)n1-c1ccc(O)cc1
MIC [10]: 125 µg/mL (≈ 305 µM) | MIC [11]: 125 µg/mL (≈ 305 µM) | MIC [12]: 125 µg/mL (≈ 305 µM) | MIC [13]: 125 µg/mL (≈ 305 µM) | MIC [14]: 125 µg/mL (≈ 305 µM) | MIC [15]: 125 µg/mL (≈ 305 µM) | MIC [16]: 125 µg/mL (≈ 305 µM) | MIC [17]: 125 µg/mL (≈ 305 µM) | MIC [18]: 125 µg/mL (≈ 305 µM) | MIC [19]: 125 µg/mL (≈ 305 µM) | MIC [20]: 125 µg/mL (≈ 305 µM) | MIC [21]: 125 µg/mL (≈ 305 µM) | MIC [22]: 125 µg/mL (≈ 305 µM)

MIC [10]: 125 µg/mL (≈ 263 µM) | MIC [11]: 125 µg/mL (≈ 263 µM) | MIC [12]: 125 µg/mL (≈ 263 µM) | MIC [13]: 125 µg/mL (≈ 263 µM) | MIC [14]: 125 µg/mL (≈ 263 µM) | MIC [15]: 125 µg/mL (≈ 263 µM) | MIC [16]: 125 µg/mL (≈ 263 µM) | MIC [17]: 125 µg/mL (≈ 263 µM) | MIC [18]: 125 µg/mL (≈ 263 µM) | MIC [19]: 125 µg/mL (≈ 263 µM) | MIC [20]: 125 µg/mL (≈ 263 µM) | MIC [21]: 125 µg/mL (≈ 263 µM) | MIC [22]: 125 µg/mL (≈ 263 µM)
SMILES: O=c1c2ccc([N+](=O)[O-])cc2nc(/C=C/c2ccc(Cl)cc2)n1-c1ccc(OCC2CO2)cc1 (centres undefined)

SMILES: CCCCc1nc2ccccc2c(=O)n1NC(=S)N1CCCC1
Activity [7]: 73%

SMILES: O=C(CO)Nc1ccc2nc(CF)n(-c3ccccc3CO)c(=O)c2c1
LD50 [9]: > 1000 mg/kg

SMILES: COc1cc(/C=N/n2c(C)nc3ccc(Br)cc3c2=O)cc(Br)c1O
zone of inhibition at 100 µg/mL [3]: 16 mm | zone of inhibition at 100 µg/mL [4]: 14 mm

SMILES: Cc1nc2ccccc2c(=O)n1NC(=S)N1CCCC1
Activity [7]: 65%

SMILES: CC(=O)Nc1ccc2nc(CS(C)(=O)=O)n(-c3ccccc3C)c(=O)c2c1
LD50 [9]: > 1000 mg/kg

MIC [10]: 125 µg/mL (≈ 227 µM) | MIC [11]: 125 µg/mL (≈ 227 µM) | MIC [12]: 125 µg/mL (≈ 227 µM) | MIC [13]: 125 µg/mL (≈ 227 µM) | MIC [14]: 125 µg/mL (≈ 227 µM) | MIC [15]: 125 µg/mL (≈ 227 µM) | MIC [16]: 125 µg/mL (≈ 227 µM) | MIC [17]: 125 µg/mL (≈ 227 µM) | MIC [18]: 125 µg/mL (≈ 227 µM) | MIC [19]: 125 µg/mL (≈ 227 µM) | MIC [20]: 125 µg/mL (≈ 227 µM) | MIC [21]: 125 µg/mL (≈ 227 µM) | MIC [22]: 125 µg/mL (≈ 227 µM)
SMILES: O=c1c2ccc(Cl)cc2nc(/C=C/c2ccc(Cl)cc2)n1-c1ccc(OCC(O)CN2CCCCC2)cc1 (centres undefined)

SMILES: Cc1nc2ccc(I)cc2c(=O)n1/N=C/c1cc(I)cc(I)c1O
zone of inhibition at 100 µg/mL [3]: 16 mm | zone of inhibition at 100 µg/mL [4]: 14 mm

MIC [10]: 125 µg/mL (≈ 269 µM) | MIC [11]: 125 µg/mL (≈ 269 µM) | MIC [12]: 125 µg/mL (≈ 269 µM) | MIC [13]: 125 µg/mL (≈ 269 µM) | MIC [14]: 125 µg/mL (≈ 269 µM) | MIC [15]: 125 µg/mL (≈ 269 µM) | MIC [16]: 125 µg/mL (≈ 269 µM) | MIC [17]: 125 µg/mL (≈ 269 µM) | MIC [18]: 125 µg/mL (≈ 269 µM) | MIC [19]: 125 µg/mL (≈ 269 µM) | MIC [20]: 125 µg/mL (≈ 269 µM) | MIC [21]: 125 µg/mL (≈ 269 µM) | MIC [22]: 125 µg/mL (≈ 269 µM)
SMILES: O=c1c2ccc(Cl)cc2nc(/C=C/c2ccc(Cl)cc2)n1-c1ccc(OCC2CO2)cc1 (centres undefined)

SMILES: Cc1nc2ccc(I)cc2c(=O)n1/N=C/c1cc(Br)cc(Br)c1O
zone of inhibition at 100 µg/mL [3]: 16 mm | zone of inhibition at 100 µg/mL [4]: 14 mm

IC50 [5]: 13.4 nM | IC50 [6]: 27.5 nM
SMILES: CN(Cc1cnc2nc(N)nc(N)c2n1)c1ccc(C(=O)N[C@@H](CCC(=O)O)C(=O)O)cc1 [METHOTREXATE]

SMILES: CCCCNC(=O)Oc1ccc(-n2c(/C=C/c3ccc(Cl)cc3)nc3cc(Cl)ccc3c2=O)cc1
MIC [10]: 125 µg/mL (≈ 246 µM) | MIC [11]: 125 µg/mL (≈ 246 µM) | MIC [12]: 125 µg/mL (≈ 246 µM) | MIC [13]: 125 µg/mL (≈ 246 µM) | MIC [14]: 125 µg/mL (≈ 246 µM) | MIC [15]: 125 µg/mL (≈ 246 µM) | MIC [16]: 125 µg/mL (≈ 246 µM) | MIC [17]: 125 µg/mL (≈ 246 µM) | MIC [18]: 125 µg/mL (≈ 246 µM) | MIC [19]: 125 µg/mL (≈ 246 µM) | MIC [20]: 125 µg/mL (≈ 246 µM) | MIC [21]: 125 µg/mL (≈ 246 µM) | MIC [22]: 125 µg/mL (≈ 246 µM)

SMILES: COc1ccc(/C=C/c2nc3ccccc3c(=O)n2-c2cc(C(=O)O)ccc2Cl)cc1
inhibition in vivo at 200 mg/kg [8]: 62.2%

IC50 [5]: 5.67 nM | IC50 [6]: 8.08 nM
SMILES: C#CCN(Cc1ccc2nc(C)[nH]c(=O)c2c1)c1ccc(C(=O)N[C@@H](C[C@H](F)C(=O)O)C(=O)O)cc1
